For orientation: IC50 means the concentration that inhibits the measured activity by half.

SMILES strings stand for the structures. Several values for one entry are separate records, joined by “and”; a condition that tells them apart may be missing. Equal entries are not always repeated.

Nonstructural protein 3, sequence (A0A024AXB9 whole entry): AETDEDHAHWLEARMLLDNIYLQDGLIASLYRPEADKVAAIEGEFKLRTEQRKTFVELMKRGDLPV

The assay has as its target Nonstructural protein 3 (Zika virus, UniProt A0A024AXB9). Nature of the assay: Functional biochemical assay to identify treatments for viral infectious disease that targets Zika NS2B-NS3 protease. Utilizing a direct enzyme activity measurement method, reading the fluorescence intensity is used to characterize the relative potency of inhibitors as IC50. The arrangement: species or system PRVABC59.
As to `O=C(NCC(F)F)[C@H](Nc1ccc2c(c1)CNC2)c1cc(Cl)cc(C2CC2)c1`, the IC50 is 0.024 µM and 0.023 µM and 0.062 µM and 0.015 µM and 0.017 µM and 0.065 µM.

Consider `Cn1nc(C2CC2)cc1C(=O)Nc1cc(CCCN)ccn1`, for which the IC50 is above 25 µM.

Take `NS(=O)(=O)c1ccc(C(F)F)cc1-c1ccc2[nH]c(C(=O)O)cc2c1`: the IC50 was above 99.5 µM.

`O=C(Nc1ccc2c(c1)CNC2)[C@H]1CCCc2[nH]ncc21` displayed an IC50 above 25 µM.

For `Cc1nc(C2CC2)sc1C(=O)Nc1cc(CCCN)ccn1`, the IC50 was above 25 µM.

Take `C=C1C[C@H](c2cccc(CN)c2)[C@@H](c2cc(Cl)cc(NC(=O)OCc3ccccc3)c2)C1`: the IC50 is above 25 µM.

The compound `O=C(O)c1ccc2nc(Cc3c[nH]c4ccc(Cl)cc34)cn2c1` returned an IC50 above 99.5 µM.

On to `CC(C)(C)OC(=O)Cc1cc(CN)cc(NC(=O)c2cc(Cl)cc(NC(=O)OCc3ccccc3)c2)c1`, for which the IC50 was above 99.5 µM.

Compound `Cn1nc(C(=O)Nc2cc(CCCN)ccn2)cc1C1CC1` displayed an IC50 above 25 µM.

In the case of `Clc1cc(CNc2ccc3c(c2)CNC3)c2cn[nH]c2c1`, the IC50 stood at 3.28 µM.

`NCc1cc(C(F)(F)F)cc(-c2ccc3[nH]c(C(=O)O)cc3c2)n1` yielded an IC50 above 99.5 µM.

`C(#C[C@H](Nc1ccc2c(c1)CNC2)c1cccc2[nH]ncc12)c1ccccc1` came in with an IC50 above 25 µM.

`O=C(O)c1cc2cc(-c3cc(Cl)cn4ncnc34)ccc2[nH]1` yielded an IC50 above 99.5 µM.

In the case of `Cn1cc2cc(C#N)cc(-c3ccc4[nH]c(C(=O)O)cc4c3)c2n1`, the IC50 was above 25 µM.

In the case of `NCc1cc(NC(=O)c2cc(Cl)cc(NC(=O)OCc3ccccc3)c2)cc(-c2ccc3c(c2)C[C@H](C(=O)O)CO3)c1`, the IC50 is above 99.5 µM.

Turning to `NCc1cc(-c2ccncc2)cc([C@@H]2C[C@H]2c2cc(Cl)cc(NC(=O)OCc3ccccc3)c2)c1`, the IC50 came out at 12.3 µM.

In the case of `Cc1c(C(=O)Nc2cc(CCCN)ccn2)cc(-c2ccccc2)n1C`, the IC50 is above 25 µM.

As to `CNC(=O)c1ccnc(NC(=O)c2cc(C3CC3)n(C)c2C)c1`, the IC50 is above 25 µM.

Regarding `O=C(O)c1cc2cc(-c3cc(Cl)cc4c3O[C@H](CO)C4)ccc2[nH]1`, the IC50 was above 25 µM.

Compound `O=C(O)Cn1nc2ccc(-c3cc(Cl)cc(NC(=O)OCc4ccccc4)c3)nn2c1=O` yielded an IC50 above 99.5 µM.

Take `Cc1ccc(Oc2ncccc2C#N)c(-c2ccc3[nH]c(C(=O)O)cc3c2)c1`: the IC50 was above 99.5 µM.

`O=Cc1ccc(N2CCC(C(=O)N3CCN(c4ccc([N+](=O)[O-])cc4C(F)(F)F)CC3)CC2)cc1`: the IC50 was above 0.782 µM.

As to `CN1[C@@H]2CCC[C@H]1C[C@@H](NC(=O)C1CCN(c3ccc(C=O)cc3)CC1)C2`, the IC50 is above 99.9 µM.

In turn, `O=Cc1ccc(N2CCC(C(=O)N3CCC(N4CCc5ccccc5C4)CC3)CC2)cc1` had an IC50 above 0.782 µM.

In turn, `O=Cc1ccc(N2CCC(C(=O)NC[C@H](O)c3ccc(O)c(O)c3)CC2)cc1` came in with an IC50 above 12.7 µM.

`O=Cc1ccc(N2CCC(C(=O)N3CCC(CCN4CCCC4)CC3)CC2)cc1` came in with an IC50 above 99.9 µM.

On to `O=Cc1ccc(N2CCC(C(=O)NCCc3ccccc3[N+](=O)[O-])CC2)cc1`, for which the IC50 is above 50.2 µM.

As to `CCN1CCN(c2ccc(NC(=O)C3CCN(c4ccc(C=O)cc4)CC3)cc2)CC1`, the IC50 amounted to 81.6 µM.

In turn, `CS(=O)(=O)c1ccc(N2CCN(C(=O)C3CCN(c4ccc(C=O)cc4)CC3)CC2)c([N+](=O)[O-])c1` yielded an IC50 above 0.782 µM.

`O=Cc1ccc(N2CCC(C(=O)NC[C@@H]3CCCN4CCCC[C@H]34)CC2)cc1`: the IC50 is above 0.782 µM.

In turn, `O=Cc1ccc(N2CCC(C(=O)Nc3ccc(Br)cc3O)CC2)cc1` returned an IC50 of 67.6 µM. That is a double-digit micromolar value.

The compound `O=Cc1ccc(N2CCC(C(=O)NCCC3CCN(Cc4ccccc4)CC3)CC2)cc1` showed an IC50 above 50.2 µM.

`CC1CCN(CCCCNC(=O)C2CCN(c3ccc(C=O)cc3)CC2)CC1`: the IC50 was above 24.9 µM.

As for `CC(=O)Nc1cccc(CNC(=O)C2CCN(c3ccc(C=O)cc3)CC2)c1`, the IC50 was above 99.9 µM.

The compound `O=Cc1ccc(N2CCC(C(=O)N3CCN(c4cccc(O)c4)CC3)CC2)cc1` displayed an IC50 of 49.4 µM.

Turning to `O=Cc1ccc(N2CCC(C(=O)N3CCN(CCc4ccccc4)CC3)CC2)cc1`, the IC50 is above 50.2 µM.

The values are drawn from ChEMBL document CHEMBL5604062, “ASAP - ZIKV NS2B-NS3 protease fluorescence dose response” (2024).
